US20030055065A1, “Tricyclic amide and urea compounds useful for inhibition of G-protein function and for treatment of proliferative diseases” (priority 1993, published 2003)
pIC50: −log10 of the molar value.

The compounds below were run against T1, farnesyl protein transferase (FPT), partially purified from rat brain (Rattus norvegicus, UniProt Q02293+Q04631) (assay: Inhibition of farnesyl protein transferase (transfer of [3H]farnesyl to Ras-CVLS)). Conditions: (1.2) μM.
T1 construct: were partially purified from rat brain by ammonium sulfate fractionation followed by Q-Sepharose
Assay type: biochemical
Method: 1. In vitro enzyme assays: Inhibition of farnesyl protein transferase and geranylgeranyl protein transferase.
Human farnesyl protein transferase was also expressed in E. coli, using cDNA clones encoding both the α and β subunits. […] Human farnesyl protein transferase was partially-purified from the soluble protein fraction of E. coli as described above. […] Two forms of val^12-Ha-Ras protein were prepared as substrates for these enzymes, differing in their carboxy terminal sequence. One form terminated in cysteine-valine-leucine-serine (Ras-CVLS) the other in cystein-valine-leucine-leucine (Ras-CVLL). Ras-CVLS is a substrate for the farnesyl protein transferase while Ras-CVLL is a substrate for geranylgeranyl protein transferase I. The cDNAs encoding these proteins were constructed so that the proteins contain an amino-terminal extension of 6 histidine residues. Both proteins were expressed in Escherichia coli and purified using metal chelate affinity chromatography. The radiolabelled isoprenyl pyrophosphate substrates, [^3H]farnesyl pyrophosphate and [3H]geranylgeranyl pyrophosphate, were purchased from DuPont/New England Nuclear.
The reaction was allowed to proceed for 30 minutes at room temperature and then stopped with 0.5 ml of 4% sodium dodecyl sulfate (SDS) followed by 0.5 ml of cold 30% trichloracetic acid (TCA). Samples were allowed to sit on ice for 45 minutes and precipitated Ras protein was then collected on GF/C filter paper mats using a Brandel cell harvester. […] Percent inhibition was calculated relative to the DMSO vehicle control.

T1 sequence (Q02293 whole entry, one chain of several): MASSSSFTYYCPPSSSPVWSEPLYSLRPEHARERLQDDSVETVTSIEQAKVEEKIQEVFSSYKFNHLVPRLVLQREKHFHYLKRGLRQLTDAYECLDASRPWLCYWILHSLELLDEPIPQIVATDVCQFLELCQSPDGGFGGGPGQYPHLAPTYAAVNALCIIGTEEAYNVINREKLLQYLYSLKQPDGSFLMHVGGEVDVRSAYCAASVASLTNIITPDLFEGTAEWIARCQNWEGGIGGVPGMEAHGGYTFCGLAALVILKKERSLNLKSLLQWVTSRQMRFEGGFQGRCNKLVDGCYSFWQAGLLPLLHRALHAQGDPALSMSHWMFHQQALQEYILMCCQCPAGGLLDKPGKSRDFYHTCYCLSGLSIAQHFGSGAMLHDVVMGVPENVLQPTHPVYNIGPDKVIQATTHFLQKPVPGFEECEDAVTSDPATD

| SMILES | FPT inhibition at the concentration in parentheses |
| --- | --- |
| O=C(Nc1cc[n+]([O-])cc1)N1CCC(=C2c3ccc(Cl)cc3CCc3cc(Cl)ccc32)CC1 [Example 422-A] | 22 (1.2) |

Same assay, conditions: (3.3) μM

| SMILES | FPT inhibition at the concentration in parentheses |
| --- | --- |
| O=C(Cc1cc[nH]c(=O)c1)N1CCC(=C2c3ccc(Cl)cc3CCc3cc(Br)cnc32)CC1 [Example 411-EE] | 10 (3.3) |

Same assay, conditions: (4) μM

| SMILES | FPT inhibition at the concentration in parentheses |
| --- | --- |
| CC(C)(C(=O)N1CCC(=C2c3ccc(Cl)cc3CCc3cc(F)cnc32)CC1)c1cc[n+]([O-])cc1 [Example 411-O] | 39 (4) |

Same assay, conditions: (4.3) μM

| SMILES | FPT inhibition at the concentration in parentheses |
| --- | --- |
| O=C(Cc1ccc[n+]([O-])c1)N1CCC(=C2c3ccc(Cl)cc3CCc3cc(F)cnc32)CC1 [Example 411-Q] | 33 (4.3) |

Same assay, conditions: Ras-CVLS farnesylation, partially purified rat brain FPT; read-out: FPT IC50

| SMILES | pIC50 | IC50 [µM] |
| --- | --- | --- |
| O=C(c1cccnc1O)N1CCC(=C2c3ccc(Cl)cc3CCc3cccnc32)CC1 [Example 114] | 4.95 | – |
| CC1(C2=CCN(C(=O)Cc3ccncc3)CC2)c2ccc(Cl)cc2CCc2cccnc21 (centres unmarked) [Example 410-F] | 5.66 | – |
| CC(=O)N1CCN(C2c3ccccc3CCc3ccccc32)CC1 [Example 153] | 4.53 | – |
| CN1CCN(CC(=O)N2CCC(=C3c4ccc(Cl)cc4CCc4cc(Br)cnc43)CC2)CC1 [Example 410-J] | 5.72 | – |
| CCc1cc2c(cc1Cl)C=Cc1cccnc1C2C1CCN(C(=O)Cc2ccncc2)CC1 (centres unmarked) [Example 362] | 5.94 | – |
| O=C(c1cc[n+]([O-])c2ccccc12)N1CCC(=C2c3ccc(Cl)cc3CCc3cccnc32)CC1 [Example 34] | 5.01 | – |
| CC1(C2CCN(C(=O)Cc3ccc[n+]([O-])c3)CC2)c2ccc(Cl)cc2CCc2cc(Br)cnc21 (centres unmarked) [Example 410-C] | 7.28 | – |
| O=C(Nc1cccnc1)N1CCN([C@@H]2c3ccc(Cl)cc3CCc3cccnc32)CC1 [224 (6.10)] | 5.49 | – |
| CC(=O)N1CCC(=C2c3ccc(Cl)cc3CCc3c(Cl)ccnc32)CC1 [Example 135] | 5.11 | – |
| CC(C)(C)OC(=O)N1CCC(CC(=O)N2CCN(C3c4ccc(Cl)cc4CCc4cccnc43)CC2)CC1 (centres unmarked) [Example 193] | 5.13 | – |
| O=C1Cc2cc(Cl)ccc2C(=C2CCN(C(=O)Cc3cccnc3)CC2)c2ncccc21 [Example 279] | 5.11 | – |
| CC(C)(C)OC(=O)NCC(=O)N1CCC(=C2c3ccc(Cl)cc3CCc3cccnc32)CC1 [Example 112] | 5.06 | – |
| Nc1ccc(C(=O)N2CCC(=C3c4ccc(Cl)cc4CCc4cccnc43)CC2)cc1 [Example 21] | 5.23 | – |
| CC1(C2CCN(C(=O)Cc3ccncc3)CC2)c2ccc(Cl)cc2CCc2cccnc21 (centres unmarked) [Example 410] | 6.15 | – |
| O=C(C(=O)N1CCC(=C2c3ccc(Cl)cc3CCc3cccnc32)CC1)c1ccccc1 [Example 296] | 5.39 | – |
| Cn1nnnc1Sc1ccnc2c1CCc1cc(Cl)ccc1C2=C1CCN(C(=O)Cc2cccnc2)CC1 [Example 259] | 5.66 | – |
| COCC(=O)N1CCC(=C2c3ccc(F)cc3CCc3cccnc32)CC1 [Example 145] | < 5.00 | – |
| O=C(Nc1cccnc1)N1CCC(=C2c3ccc(Cl)cc3CCc3c(O)ccnc32)CC1 [Example 263] | 5.01 | – |
| CCNc1cnc2c(c1)CCc1cc(Cl)ccc1C2=C1CCN(C(=O)Cc2ccncc2)CC1 [Example 424] | 5.89 | – |
| CC(=O)N1CCCC(CC(=O)N2CCN(C3c4ccc(Cl)cc4CCc4cccnc43)CC2)C1 (centres unmarked) [Example 205] | 5.51 | – |
| O=C(c1cc[n+]([O-])cc1)N1CCC(=C2c3ccccc3CCc3ccccc32)CC1 [Example 151] | 4.82 | – |

| SMILES | pIC50 | IC50 [µM] |
| --- | --- | --- |
| O=C1CCC(C(=O)N2CCC(=C3c4ccc(Cl)cc4CCc4cccnc43)CC2)O1 (centres unmarked) [Example 39] | 4.87 | – |
| COCC(=O)N1CCC(=C2c3ccc(Cl)cc3CCc3cccnc32)CC1 [Example 58] | 4.84 | – |
| CC(=O)N1CCC(=C2c3ccc(Cl)cc3CCc3cccnc32)CC1 [Example 59] | 4.57 | – |
| CS(=O)(=O)Nc1cnc2c(c1)CCc1cc(Cl)ccc1C2=C1CCN(C(=O)Cc2ccncc2)CC1 [Example 404] | 5.34 | – |
| O=C(Cc1ccc(O)cc1)NCC(=O)N1CCN(C2c3ccc(Cl)cc3CCc3cccnc32)CC1 (centres unmarked) [Example 210] | 5.10 | – |
| CC(=O)N1CCC(=C2c3ccccc3CCc3c2[nH]c2ccccc32)CC1 [Example 140] | 4.80 | – |
| O=C(C1CCC(=NO)CC1)N1CCC(=C2c3ccc(Cl)cc3CCc3cccnc32)CC1 (centres unmarked) [Example 104] | 5.33 | – |
| O=C(Nc1cccnc1)N1CCC(=C2c3ccc(Cl)cc3C=Cc3cccnc32)CC1 [Example 277] | 5.64 | – |
| O=C(c1ccc(=O)[nH]c1)N1CCC(=C2c3ccccc3CCc3ccccc32)CC1 [Example 152] | 4.82 | – |
| NCC(=O)N1CCC(=C2c3ccc(Cl)cc3CCc3cccnc32)CC1 [Example 118] | 4.65 | – |
| CCN(CC)c1cnc2c(c1)CCc1cc(Cl)ccc1C2=C1CCN(C(=O)Cc2ccncc2)CC1 [Example 424-A] | – | 1000 |
| O=C(Cc1cccnc1)N1CCC(=C2c3ccc(Cl)cc3CCc3c(O)ccnc32)CC1 [Example 252] | 5.14 | – |
| CC(=O)N1CCC(=C2c3ccc(Cl)cc3CCc3cc(Br)c[n+]([O-])c32)CC1 [Example 74B] | 5.40 | – |
| O=C(Cc1ccnc(-n2ccnc2)c1)N1CCC(=C2c3ccc(Cl)cc3CCc3cc(Br)cnc32)CC1 [Example 410-T] | 5.74 | – |
| COC(=O)CSc1ccnc2c1CCc1cc(Cl)ccc1C2=C1CCN(C(=O)Cc2cccnc2)CC1 [Example 257] | 5.64 | – |
| CC(=O)N1CCN(C2c3ccc(Cl)cc3CCc3cccnc32)CC1C (centres unmarked) [Example 149] | 4.97 | – |
| O=C(c1ccco1)N1CCC(=C2c3ccc(Cl)cc3CCc3cccnc32)CC1 [Example 52] | 5.31 | – |
| CC(C)(C(=O)N1CCC(C2c3ccc(Cl)cc3C=Cc3cccnc32)CC1)c1cccnc1 (centres unmarked) [Example 268] | 5.91 | – |
| NC(=O)c1ccc2c(c1)CCc1cccnc1C2=C1CCN(C(=O)Cc2ccncc2)CC1 [Example 436-D] | 6.12 | – |
| O=C(Cc1cccnc1)N1CCC(=C2c3ccccc3CCc3cccnc32)CC1 [Example 323] | 5.31 | – |
| O=C(c1ccnc(Cl)c1)N1CCC(=C2c3ccc(Cl)cc3CCc3cccnc32)CC1 [Example 28] | 5.14 | – |

Same assay, conditions: Table 22; no key shown; presumably % inhibition (concentration in μM)

| SMILES | FPT IC50 (μM) column, second line printed as 'x (y)' |
| --- | --- |
| CCN(CC)c1cnc2c(c1)CCc1cc(Cl)ccc1C2=C1CCN(C(=O)Cc2ccncc2)CC1 [Example 424-A] | 22 (4) |

Same assay, conditions: at 12 μM

| SMILES | FPT inhibition [% @] |
| --- | --- |
| O=C(NCC(=O)N1CCN(C2c3ccc(Cl)cc3CCc3cccnc32)CC1)OCc1ccccc1 (centres unmarked) [Example 207] | 40 |

Same assay, conditions: at 12.6 μM

| SMILES | FPT inhibition [% at 12.6 μM] |
| --- | --- |
| O=C1CCC(C(=O)N2CCC(=C3c4ccc(Cl)cc4CCc4cccnc43)CC2)N1 (centres unmarked) [Example 123] | 23 |

Same assay, conditions: at 13 μM

| SMILES | FPT inhibition |
| --- | --- |
| NC(Cc1ccccc1)C(=O)N1CCN(C2c3ccc(Cl)cc3CCc3cccnc32)CC1 (centres unmarked) [Example 215] | 30% @ |
| O=C(c1cc2ccccc2[nH]1)N1CCC(=C2c3ccc(Cl)cc3CCc3cccnc32)CC1 [Example 40] | 44% at 13 μM |

Same assay, conditions: at 16.3 μM

| SMILES | FPT inhibition [% at 16.3 μM] |
| --- | --- |
| CC(=O)N1CCC(=C2c3ccc(Cl)cc3CC(C)c3cccnc32)CC1 (centres unmarked) [Example 137] | 15 |

Same assay, conditions: at 16.4 μM

| SMILES | FPT inhibition [% at 16.4 μM] |
| --- | --- |
| CC(=O)N1CCC(=C2c3ccc(Cl)cc3CCc3ccc(C)nc32)CC1 [Example 63] | 1 |

Same assay, conditions: at 39 μM

| SMILES | FPT inhibition [% at 39 μM] |
| --- | --- |
| Cc1ccc(S(=O)(=O)NC(=O)N2CCC(=C3c4ccc(Cl)cc4CCc4cccnc43)CC2)cc1 [Example 120] | 4 |

Same assay, conditions: enzyme inhibition; read-out: FPT IC50

| SMILES | pIC50 |
| --- | --- |
| NC(=O)N1CCC(CC(=O)N2CCN(C3c4ccc(Cl)cc4CCc4cccnc43)CC2)CC1 (centres unmarked) [Example 431] | 6.09 |
| O=C(Cc1ccnc(OCc2ccccc2)c1)N1CCC(=C2c3ccc(Cl)cc3CCc3cc(Br)cnc32)CC1 [Example 411-DD] | 5.51 |
| O=C(Cc1ccc[n+]([O-])c1)N1CCC(=C2c3ccc(Cl)cc3CCc3cc(F)cnc32)CC1 [Example 411-Q] | ~5.00 |
| CN1CCCC(CC(=O)N2CCC(=C3c4ccc(Cl)cc4CCc4cc(F)cnc43)CC2)C1 (centres unmarked) [Example 411-S] | 5.68 |
| O=C(Cc1ccncc1)N1CCC(=C2c3ccc(Cl)cc3CCc3ccc(O)nc32)CC1 [Example 411-C] | 5.22 |
| COC(=O)c1ccc2c(c1)CCc1cccnc1C2=C1CCN(C(=O)Cc2ccncc2)CC1 [Example 434-A] | 5.46 |
| CN1CCCC(NC(=O)N2CCN(C3c4ccc(Cl)cc4CCc4cccnc43)CC2)C1 (centres unmarked) [Example 432] | 6.18 |
| O=C(Nc1cc[n+]([O-])cc1)N1CCC(=C2c3ccc(Cl)cc3CCc3cc(Cl)ccc32)CC1 [Example 422-A] | < 5.92 |
| O=C(Cc1cccnc1)N1CCC(=C2c3ccc(Cl)cc3CCc3cc(Cl)cnc32)CC1 [Example 411-T] | 6.24 |
| O=C(Cc1ccnc(N2CCCCC2)c1)N1CCC(=C2c3ccc(Cl)cc3CCc3cc(Br)cnc32)CC1 [Example 411-FF] | 5.74 |
| O=C(Cc1ccc[n+]([O-])c1)N1CCC(C2c3ccc(Cl)cc3CCc3cc(Br)cnc32)CC1 (centres unmarked) [Example 411-Z] | 5.82 |
| CNC(=S)N1CCC(CC(=O)N2CCN(C3c4ccc(Cl)cc4CCc4cccnc43)CC2)CC1 (centres unmarked) [Example 431-E] | 6.06 |
| CCNC(=O)N1CCC(CC(=O)N2CCN(C3c4ccc(Cl)cc4CCc4cccnc43)CC2)CC1 (centres unmarked) [Example 431-B] | 6.04 |
| CC(C)(C(=O)N1CCC(=C2c3ccc(Cl)cc3CCc3cc(F)cnc32)CC1)c1cc[n+]([O-])cc1 [Example 411-O] | ~5.30 |
| O=C(Nc1cc[n+]([O-])cc1)N1CCN(C2c3ccc(Cl)cc3CCc3cc(Br)cnc32)CC1 (centres unmarked) [Example 427-B] | 6.68 |
| CN1CCC(CC(=O)N2CCN([C@H]3c4ccc(Cl)cc4CCc4cccnc43)CC2)CC1 [Example 425-N] | 6.19 |
| CNC(=O)N1CCC(CC(=O)N2CCN(C3c4ccc(Cl)cc4CCc4cccnc43)CC2)CC1 (centres unmarked) [Example 431-A] | 5.98 |
